Test: Antagonist activity at human recombinant CCR5 by cell-cell fusion assay

SMILES | IC50
Cc1nc(C(F)(F)F)nc(C)c1C(=O)N1C[C@H]2CN(CCC3(c4ccccc4)CN(C(=O)C4CC(F)(F)C4)C3)C[C@H]2C1 [((3aR,6aS)-5-(2-(1-(3,3-difluorocyclobutanecarbonyl)-3-phenylazetidin-3-yl)ethyl)hexahydropyrrolo[3,4-c]pyrrol-2(1H)-yl)(4,6-dimethyl-2-(trifluoromethyl)pyrimidin-5-yl)methanone] | 168 nM
Cc1ccnc(C)c1C(=O)N1C[C@H]2CN(CCC3(c4ccccc4)CN(C(=O)C4CCC(F)(F)CC4)C3)C[C@H]2C1 [((3aR,6aS)-5-(2-(1-(4,4-difluorocyclohexanecarbonyl)-3-phenylazetidin-3-yl)ethyl)hexahydropyrrolo[3,4-c]pyrrol-2(1H)-yl)(2,4-dimethylpyridin-3-yl)methanone] | 15 nM
Cc1nc(C(F)(F)F)nc(C)c1C(=O)N1C[C@H]2CN(CCC3(c4ccccc4)CN(C(=O)C4CCOC4)C3)C[C@H]2C1 (stereo partly drawn) [(4,6-dimethyl-2-(trifluoromethyl)pyrimidin-5-yl)((3aR,6aS)-5-(2-(3-phenyl-1-(tetrahydrofuran-3-carbonyl)azetidin-3-yl)ethyl)hexahydropyrrolo[3,4-c]pyrrol-2(1H)-yl)methanone] | 92 nM
Cc1cc(C#N)nc(C)c1C(=O)N1C[C@H]2CN(CCC3(c4cccc(F)c4)CCN(C(=O)C(C)(C)C)CC3)C[C@H]2C1 [5-((3aR,6aS)-5-(2-(4-(3-fluorophenyl)-1-pivaloylpiperidin-4-yl)ethyl)octahydropyrrolo[3,4-c]pyrrole-2-carbonyl)-4,6-dimethylpicolinonitrile] | 37 nM
Cc1ncnc(C)c1C(=O)N1C[C@H]2CN(CCC3(c4ccccc4)CN(S(=O)(=O)C4CCCC4)C3)C[C@H]2C1 [((3aR,6aS)-5-(2-(1-(cyclopentylsulfonyl)-3-phenylazetidin-3-yl)ethyl)hexahydropyrrolo[3,4-c]pyrrol-2(1H)-yl)(4,6-dimethylpyrimidin-5-yl)methanone] | 458 nM
Cc1cc(C#N)nc(C)c1C(=O)N1C[C@H]2CN(CCC3(c4ccccc4)CN(C(=O)C4CC(F)(F)C4)C3)C[C@H]2C1 [5-((3aR,6aS)-5-(2-(1-(3,3-difluorocyclobutanecarbonyl)-3-phenylazetidin-3-yl)ethyl)octahydropyrrolo[3,4-c]pyrrole-2-carbonyl)-4,6-dimethylpicolinonitrile] | 1 nM
Cc1cc(C(F)(F)F)nc(C)c1C(=O)N1C[C@H]2CN(CCC3(c4ccccc4)CN(C(=O)C4CC(F)(F)C4)C3)C[C@H]2C1 [((3aR,6aS)-5-(2-(1-(3,3-difluorocyclobutanecarbonyl)-3-phenylazetidin-3-yl)ethyl)hexahydropyrrolo[3,4-c]pyrrol-2(1H)-yl)(2,4-dimethyl-6-(trifluoromethyl)pyridin-3-yl)methanone] | 3 nM
Cc1cc(C(F)(F)F)nc(C)c1C(=O)N1C[C@H]2CN(CCC3(c4ccccc4)CN(C(=O)C4CCC(F)(F)CC4)C3)C[C@H]2C1 [((3aR,6aS)-5-(2-(1-(4,4-difluorocyclohexanecarbonyl)-3-phenylazetidin-3-yl)ethyl)hexahydropyrrolo[3,4-c]pyrrol-2(1H)-yl)(2,4-dimethyl-6-(trifluoromethyl)pyridin-3-yl)methanone] | 2 nM
Cc1nc(C(F)(F)F)nc(C)c1C(=O)N1C[C@H]2CN(CCC3(c4ccccc4)CN(C(=O)C4CCC(F)(F)CC4)C3)C[C@H]2C1 [((3aR,6aS)-5-(2-(1-(4,4-difluorocyclohexanecarbonyl)-3-phenylazetidin-3-yl)ethyl)hexahydropyrrolo[3,4-c]pyrrol-2(1H)-yl)(4,6-dimethyl-2-(trifluoromethyl)pyrimidin-5-yl)methanone] | 5 nM
Cc1cc(C#N)nc(C)c1C(=O)N1C[C@H]2CN(CCC3(c4ccccc4)CCN(C(=O)C4CCCC4)C3)C[C@H]2C1 (stereo partly drawn) [5-((3aR,6aS)-5-(2-(1-(cyclopentanecarbonyl)-3-phenylpyrrolidin-3-yl)ethyl)octahydropyrrolo[3,4-c]pyrrole-2-carbonyl)-4,6-dimethylpicolinonitrile] | 85 nM

Results, then the compound that gave them:

IC50 | SMILES
1000 nM | Cc1ncnc(C)c1C(=O)N1C[C@H]2CN(CCC3(c4cccc(F)c4)CCN(C(=O)C(C)(C)CO)CC3)C[C@H]2C1 [1-(4-(2-((3aR,6aS)-5-(4,6-dimethylpyrimidine-5-carbonyl)hexahydropyrrolo[3,4-c]pyrrol-2(1H)-yl)ethyl)-4-(3-fluorophenyl)piperidin-1-yl)-3-hydroxy-2,2-dimethylpropan-1-one]
1940 nM | Cc1ncnc(C)c1C(=O)N1C[C@H]2CN(CCC3(c4ccccc4)CCN(C(=O)C(C)(C)C)C3)C[C@H]2C1 (stereo partly drawn) [1-(3-(2-((3aR,6aS)-5-(4,6-dimethylpyrimidine-5-carbonyl)hexahydropyrrolo[3,4-c]pyrrol-2(1H)-yl)ethyl)-3-phenylpyrrolidin-1-yl)-2,2-dimethylpropan-1-one]
559 nM | Cc1ncnc(C)c1C(=O)N1C[C@H]2CN(CCC3(c4ccccc4)CN(C(=O)C4CCOC4)C3)C[C@H]2C1 (stereo partly drawn) [(4,6-dimethylpyrimidin-5-yl)((3aR,6aS)-5-(2-(3-phenyl-1-(tetrahydrofuran-3-carbonyl)azetidin-3-yl)ethyl)hexahydropyrrolo[3,4-c]pyrrol-2(1H)-yl)methanone]
186 nM | Cc1ncnc(C)c1C(=O)N1C[C@H]2CN(CCC3(c4ccccc4)CN(C(=O)C(C)(C)C)C3)C[C@H]2C1 [1-(3-(2-((3aR,6aS)-5-(4,6-dimethylpyrimidine-5-carbonyl)hexahydropyrrolo[3,4-c]pyrrol-2(1H)-yl)ethyl)-3-phenylazetidin-1-yl)-2,2-dimethylpropan-1-one]
93 nM | Cc1ncnc(C)c1C(=O)N1C[C@H]2CN(CCC3(c4ccccc4)CN(C(=O)C4CC(F)(F)C4)C3)C[C@H]2C1 [((3aR,6aS)-5-(2-(1-(3,3-difluorocyclobutanecarbonyl)-3-phenylazetidin-3-yl)ethyl)hexahydropyrrolo[3,4-c]pyrrol-2(1H)-yl)(4,6-dimethylpyrimidin-5-yl)methanone]
129 nM | Cc1ncnc(C)c1C(=O)N1C[C@H]2CN(CCC3(c4cccc(F)c4)CCN(C(=O)C(C)(C)C)CC3)C[C@H]2C1 [1-(4-(2-((3aR,6aS)-5-(4,6-dimethylpyrimidine-5-carbonyl)hexahydropyrrolo[3,4-c]pyrrol-2(1H)-yl)ethyl)-4-(3-fluorophenyl)piperidin-1-yl)-2,2-dimethylpropan-1-one]
10 nM | Cc1ncnc(C)c1C(=O)N1C[C@H]2CN(CCC3(c4ccccc4)CN(C(=O)C4CCC(F)(F)CC4)C3)C[C@H]2C1 [((3aR,6aS)-5-(2-(1-(4,4-difluorocyclohexanecarbonyl)-3-phenylazetidin-3-yl)ethyl)hexahydropyrrolo[3,4-c]pyrrol-2(1H)-yl)(4,6-dimethylpyrimidin-5-yl)methanone]
310 nM | Cc1ncnc(C)c1C(=O)N1C[C@H]2CN(CCC3(c4ccccc4)CN(C(=O)C(C)(C)CO)C3)C[C@H]2C1 [1-(3-(2-((3aR,6aS)-5-(4,6-dimethylpyrimidine-5-carbonyl)hexahydropyrrolo[3,4-c]pyrrol-2(1H)-yl)ethyl)-3-phenylazetidin-1-yl)-3-hydroxy-2,2-dimethylpropan-1-one]
136 nM | Cc1ncnc(C)c1C(=O)N1C[C@H]2CN(CCC3(c4ccccc4)CN(C(=O)CC4CCCC4)C3)C[C@H]2C1 [2-cyclopentyl-1-(3-(2-((3aR,6aS)-5-(4,6-dimethylpyrimidine-5-carbonyl)hexahydropyrrolo[3,4-c]pyrrol-2(1H)-yl)ethyl)-3-phenylazetidin-1-yl)ethanone]
160 nM | Cc1ncnc(C)c1C(=O)N1C[C@H]2CN(CCC3(c4cccc(F)c4)CCN(C(=O)C(C)C)CC3)C[C@H]2C1 [1-(4-(2-((3aR,6aS)-5-(4,6-dimethylpyrimidine-5-carbonyl)hexahydropyrrolo[3,4-c]pyrrol-2(1H)-yl)ethyl)-4-(3-fluorophenyl)piperidin-1-yl)-2-methylpropan-1-one]
360 nM | Cc1cc(C#N)nc(C)c1C(=O)N1C[C@H]2CN(CCC3(c4ccccc4)CCN(C(=O)C(C)(C)C)C3)C[C@H]2C1 (stereo partly drawn) [4,6-dimethyl-5-((3aR,6aS)-5-(2-(3-phenyl-1-pivaloylpyrrolidin-3-yl)ethyl)octahydropyrrolo[3,4-c]pyrrole-2-carbonyl)picolinonitrile]
339 nM | Cc1ncnc(C)c1C(=O)N1C[C@H]2CN(CCC3(c4cccc(F)c4)CCN(C(=O)CC(C)(C)C)CC3)C[C@H]2C1 [1-(4-(2-((3aR,6aS)-5-(4,6-dimethylpyrimidine-5-carbonyl)hexahydropyrrolo[3,4-c]pyrrol-2(1H)-yl)ethyl)-4-(3-fluorophenyl)piperidin-1-yl)-3,3-dimethylbutan-1-one]
> 2500 nM | CC(=O)N1CCC(CCN2C[C@@H]3CN(C(=O)c4c(C)ncnc4C)C[C@@H]3C2)(c2cccc(F)c2)CC1 [1-(4-(2-((3aR,6aS)-5-(4,6-dimethylpyrimidine-5-carbonyl)hexahydropyrrolo[3,4-c]pyrrol-2(1H)-yl)ethyl)-4-(3-fluorophenyl)piperidin-1-yl)ethanone]
